Assay results as given in publication PMC11406361, “Several orphan solute carriers functionally identified as organic cation transporters: Substrates specificity compared with known cation transporters” (The Journal of Biological Chemistry, 2024).

Columns and labels:
SLC38A10 [1] = molecular target: T1, SLC38A10 (Homo sapiens, UniProt Q9HBR0)
SLC35G3 [2] = molecular target: T2, SLC35G3 (Homo sapiens, UniProt Q8N808); test: Uptake ratio screen, SLC35G3-overexpressing HEK293 over empty vector cells; assay type: cell-based; set-up: by amplifying the entire gene-of-interest within the HEK293 genome via a long-range PCR; conditions: 2.5 μM substrate, 2 min, HEK293
SLC22A15 = molecular target: T3, SLC22A15 (Homo sapiens, UniProt Q8IZD6); test: Uptake ratio screen, SLC22A15-overexpressing HEK293 over empty vector cells; assay type: cell-based; conditions: 2.5 μM (nicotine 10 μM), 2 min
T3 construct: by amplifying the entire gene-of-interest within the HEK293 genome via a long-range PCR
Procedure: (§1) Typically discussed substrates of the proton organic-cation antiporter ([14]) are highlighted in dark green in Figure 1.
(§2) In preparation for transport experiments, 24-well plates were pre-coated with poly-D-lysine (Sigma-Aldrich) and 300,000 cells were plated per well and incubated for 48 h. Firstly, the 24-well plate was placed on a heating plate at 37 °C, and the cells were washed with 37 °C HBSS^+ buffer (Hank’s balanced salt solution supplemented with 10 mM Hepes and adjusted to pH 7.4; Thermo Fisher Scientific). The substance-of-interest, which was diluted in 37 °C HBSS^+ to a desired concentration, was added to the cells for exactly 2 min. […] The uptake was stopped with ice-cold HBSS^+, and the 24-well plate was removed from the heating plate. The cells were washed twice with the cold HBSS^+ before they were lysed for 15 min with 80% (v/v) acetonitrile containing the respective internal standard for mass spectrometry. For variations in seeded cell numbers between the cell lines, several wells were lysed in RIPA buffer and used for total protein quantification using a bicinchoninic assay ([74]) and bovine serum albumin as calibration.
(§3) The intracellular drug concentrations after transport experiments were analyzed by high-performance liquid chromatography coupled to tandem mass spectrometry analysis. The HPLC consisted of a Shimadzu Nexera HPLC System with a SIL-30AC autosampler, a LC-30AD pump, a CTO-20AC column oven, and a CBM-20A controller (Shimadzu). The reverse-phase chromatography of compounds was accomplished with a Brownlee SPP RP-Amide column with 4.6 × 100 mm inner dimensions, a particle size of 2.7 μm, and a preceding Phenomenex C-18 guard column. The mobile phase was composed of an organic additive with acetonitrile:methanol 6:1 (v/v) in total concentrations between 3% and 50% (v/v) and 0.1% (v/v) formic acid in the aqueous component of the eluent. During separation, the column oven was held at 40 °C and the mobile phase was maintained at a flow rate of 300 or 400 μl/min. After separation, the detection of substances was performed with an API 4000 tandem mass spectrometer (AB SCIEX, https://sciex.com/support/software-support/software-downloads), followed by quantification of results with the Analyst software (AB SCIEX, version 1.6.2). The composition of chromatographic conditions, as well as detailed mass spectrometric detection parameters, are listed in Table S5.
(§4) Transport-mediated net uptake was determined as fold-increase of transporter-overexpressing cells over empty vector–transfected control cells.

SLC35F2 = molecular target: T4, SLC35F2 (Homo sapiens, UniProt Q8IXU6)
T4 sequence (Q8IXU6 1-374): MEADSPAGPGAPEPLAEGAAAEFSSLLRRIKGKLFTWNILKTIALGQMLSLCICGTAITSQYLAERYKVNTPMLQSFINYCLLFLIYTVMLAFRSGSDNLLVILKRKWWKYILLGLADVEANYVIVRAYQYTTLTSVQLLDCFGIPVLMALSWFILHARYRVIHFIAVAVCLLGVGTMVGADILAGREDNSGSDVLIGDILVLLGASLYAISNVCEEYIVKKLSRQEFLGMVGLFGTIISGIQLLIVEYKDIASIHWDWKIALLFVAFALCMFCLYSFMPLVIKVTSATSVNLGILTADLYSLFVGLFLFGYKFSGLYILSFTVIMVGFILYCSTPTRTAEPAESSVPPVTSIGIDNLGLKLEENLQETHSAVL

SLC35G3 [3] = molecular target: T2, SLC35G3
SLC35E4 = molecular target: T5, SLC35E4 (Homo sapiens, UniProt Q6ICL7); test: Uptake ratio screen, SLC35E4-overexpressing HEK293 over empty vector cells; assay type: cell-based; set-up: by amplifying the entire gene-of-interest within the HEK293 genome via a long-range PCR; conditions: 2.5 μM, 2 min
T5 sequence (Q6ICL7 1-350): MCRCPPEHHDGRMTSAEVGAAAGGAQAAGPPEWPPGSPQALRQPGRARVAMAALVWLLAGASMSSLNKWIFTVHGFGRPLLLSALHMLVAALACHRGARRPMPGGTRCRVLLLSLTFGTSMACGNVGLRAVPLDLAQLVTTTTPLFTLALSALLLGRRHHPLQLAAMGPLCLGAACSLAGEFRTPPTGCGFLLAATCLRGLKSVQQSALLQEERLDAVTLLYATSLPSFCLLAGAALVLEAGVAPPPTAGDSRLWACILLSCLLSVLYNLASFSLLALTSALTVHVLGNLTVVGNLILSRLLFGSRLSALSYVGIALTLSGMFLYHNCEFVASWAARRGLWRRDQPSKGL
Procedure: as §1, §2
(§5) The intracellular drug concentrations after transport experiments were analyzed by high-performance liquid chromatography coupled to tandem mass spectrometry analysis. The HPLC consisted of a Shimadzu Nexera HPLC System with a SIL-30AC autosampler, a LC-30AD pump, a CTO-20AC column oven, and a CBM-20A controller (Shimadzu). The reverse-phase chromatography of compounds was accomplished with a Brownlee SPP RP-Amide column with 4.6 × 100 mm inner dimensions, a particle size of 2.7 μm, and a preceding Phenomenex C-18 guard column. […] After separation, the detection of substances was performed with an API 4000 tandem mass spectrometer (AB SCIEX, https://sciex.com/support/software-support/software-downloads), followed by quantification of results with the Analyst software (AB SCIEX, version 1.6.2). […]
as §4

SLC38A10 [4] = molecular target: T1, SLC38A10; test: Uptake ratio screen, SLC38A10-overexpressing HEK293 over empty vector cells; assay type: cell-based; set-up: by amplifying the entire gene-of-interest within the HEK293 genome via a long-range PCR; conditions: 2.5 μM, 2 min
Procedure: as §1
In preparation for transport experiments, 24-well plates were pre-coated with poly-D-lysine (Sigma-Aldrich) and 300,000 cells were plated per well and incubated for 48 h. Firstly, the 24-well plate was placed on a heating plate at 37 °C, and the cells were washed with 37 °C HBSS^+ buffer (Hank’s balanced salt solution supplemented with 10 mM Hepes and adjusted to pH 7.4; Thermo Fisher Scientific). The substance-of-interest, which was diluted in 37 °C HBSS^+ to a desired concentration, was added to the cells for exactly 2 min. […] For variations in seeded cell numbers between the cell lines, several wells were lysed in RIPA buffer and used for total protein quantification using a bicinchoninic assay ([74]) and bovine serum albumin as calibration.
The intracellular drug concentrations after transport experiments were analyzed by high-performance liquid chromatography coupled to tandem mass spectrometry analysis. […] After separation, the detection of substances was performed with an API 4000 tandem mass spectrometer (AB SCIEX, https://sciex.com/support/software-support/software-downloads), followed by quantification of results with the Analyst software (AB SCIEX, version 1.6.2). […]

SLC35F3 = SLC35F3 (Homo sapiens, UniProt Q8IY50); conditions: 2.5 μM, 2 min, HEK293
Procedure: as §1, §2, §3, §4

SLC35F4 = molecular target: T6, SLC35F4 (Homo sapiens, UniProt A4IF30); test: Uptake ratio screen, SLC35F4-overexpressing HEK293 over empty vector cells; assay type: cell-based; set-up: by amplifying the entire gene-of-interest within the HEK293 genome via a long-range PCR; conditions: 2.5 μM, 2 min
T6 sequence (A4IF30 1-521): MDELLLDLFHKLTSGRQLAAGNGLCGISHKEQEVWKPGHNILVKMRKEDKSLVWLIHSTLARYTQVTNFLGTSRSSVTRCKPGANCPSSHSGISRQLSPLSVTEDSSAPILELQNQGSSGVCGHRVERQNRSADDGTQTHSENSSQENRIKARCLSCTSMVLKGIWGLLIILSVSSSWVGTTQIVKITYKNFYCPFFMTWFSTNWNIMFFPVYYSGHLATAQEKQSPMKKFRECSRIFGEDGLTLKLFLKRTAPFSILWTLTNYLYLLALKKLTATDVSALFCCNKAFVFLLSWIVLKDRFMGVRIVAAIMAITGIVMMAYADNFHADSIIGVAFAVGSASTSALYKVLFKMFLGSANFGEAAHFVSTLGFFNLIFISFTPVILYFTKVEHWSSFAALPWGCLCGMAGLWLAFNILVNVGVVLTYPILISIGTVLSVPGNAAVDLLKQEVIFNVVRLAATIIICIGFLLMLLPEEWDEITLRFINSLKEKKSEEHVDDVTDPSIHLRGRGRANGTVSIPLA
Procedure: as §1, §2, §3, §4

SLC35E2A [5] = molecular target: T7, SLC35E2A (Homo sapiens, UniProt P0CK97)
SLC35E2A [6] = molecular target: T7, SLC35E2A; test: Uptake ratio screen, SLC35E2A-overexpressing HEK293 over empty vector cells; assay type: cell-based; set-up: by amplifying the entire gene-of-interest within the HEK293 genome via a long-range PCR; conditions: 2.5 μM, 2 min
Procedure: as §1, §2, §5, §4

T2 sequence (Q8N808 whole entry): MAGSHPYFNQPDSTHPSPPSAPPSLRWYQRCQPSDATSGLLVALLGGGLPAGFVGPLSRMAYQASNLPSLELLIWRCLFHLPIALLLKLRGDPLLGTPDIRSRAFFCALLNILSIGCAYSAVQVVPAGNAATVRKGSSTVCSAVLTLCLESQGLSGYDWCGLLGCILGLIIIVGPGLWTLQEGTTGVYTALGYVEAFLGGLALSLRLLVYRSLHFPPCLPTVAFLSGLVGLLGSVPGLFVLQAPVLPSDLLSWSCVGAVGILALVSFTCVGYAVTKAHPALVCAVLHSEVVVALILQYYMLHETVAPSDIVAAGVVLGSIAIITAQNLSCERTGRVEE
T7 sequence (P0CK97 whole entry): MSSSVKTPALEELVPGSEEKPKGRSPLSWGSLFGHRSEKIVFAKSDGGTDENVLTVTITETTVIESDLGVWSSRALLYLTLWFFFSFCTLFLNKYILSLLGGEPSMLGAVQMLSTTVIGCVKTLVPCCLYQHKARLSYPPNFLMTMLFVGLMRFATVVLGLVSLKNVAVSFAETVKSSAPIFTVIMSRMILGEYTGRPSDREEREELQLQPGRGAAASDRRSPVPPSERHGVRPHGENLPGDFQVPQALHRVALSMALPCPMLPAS
T3 sequence (Q8IZD6 whole entry): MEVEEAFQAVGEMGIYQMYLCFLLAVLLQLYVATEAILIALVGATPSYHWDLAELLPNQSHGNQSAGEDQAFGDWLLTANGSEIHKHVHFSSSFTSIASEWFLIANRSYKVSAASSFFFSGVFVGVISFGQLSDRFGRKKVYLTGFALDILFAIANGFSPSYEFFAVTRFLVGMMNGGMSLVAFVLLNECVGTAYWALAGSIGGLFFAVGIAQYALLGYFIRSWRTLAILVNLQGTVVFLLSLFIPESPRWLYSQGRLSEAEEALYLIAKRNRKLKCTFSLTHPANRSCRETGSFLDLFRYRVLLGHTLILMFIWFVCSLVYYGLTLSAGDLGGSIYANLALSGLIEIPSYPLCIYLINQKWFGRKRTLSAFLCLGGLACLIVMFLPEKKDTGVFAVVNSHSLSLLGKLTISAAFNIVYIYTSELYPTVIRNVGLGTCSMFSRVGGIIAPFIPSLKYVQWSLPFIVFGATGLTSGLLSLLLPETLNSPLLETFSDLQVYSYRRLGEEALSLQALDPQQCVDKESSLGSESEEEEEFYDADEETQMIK
T1 sequence (Q9HBR0 whole entry): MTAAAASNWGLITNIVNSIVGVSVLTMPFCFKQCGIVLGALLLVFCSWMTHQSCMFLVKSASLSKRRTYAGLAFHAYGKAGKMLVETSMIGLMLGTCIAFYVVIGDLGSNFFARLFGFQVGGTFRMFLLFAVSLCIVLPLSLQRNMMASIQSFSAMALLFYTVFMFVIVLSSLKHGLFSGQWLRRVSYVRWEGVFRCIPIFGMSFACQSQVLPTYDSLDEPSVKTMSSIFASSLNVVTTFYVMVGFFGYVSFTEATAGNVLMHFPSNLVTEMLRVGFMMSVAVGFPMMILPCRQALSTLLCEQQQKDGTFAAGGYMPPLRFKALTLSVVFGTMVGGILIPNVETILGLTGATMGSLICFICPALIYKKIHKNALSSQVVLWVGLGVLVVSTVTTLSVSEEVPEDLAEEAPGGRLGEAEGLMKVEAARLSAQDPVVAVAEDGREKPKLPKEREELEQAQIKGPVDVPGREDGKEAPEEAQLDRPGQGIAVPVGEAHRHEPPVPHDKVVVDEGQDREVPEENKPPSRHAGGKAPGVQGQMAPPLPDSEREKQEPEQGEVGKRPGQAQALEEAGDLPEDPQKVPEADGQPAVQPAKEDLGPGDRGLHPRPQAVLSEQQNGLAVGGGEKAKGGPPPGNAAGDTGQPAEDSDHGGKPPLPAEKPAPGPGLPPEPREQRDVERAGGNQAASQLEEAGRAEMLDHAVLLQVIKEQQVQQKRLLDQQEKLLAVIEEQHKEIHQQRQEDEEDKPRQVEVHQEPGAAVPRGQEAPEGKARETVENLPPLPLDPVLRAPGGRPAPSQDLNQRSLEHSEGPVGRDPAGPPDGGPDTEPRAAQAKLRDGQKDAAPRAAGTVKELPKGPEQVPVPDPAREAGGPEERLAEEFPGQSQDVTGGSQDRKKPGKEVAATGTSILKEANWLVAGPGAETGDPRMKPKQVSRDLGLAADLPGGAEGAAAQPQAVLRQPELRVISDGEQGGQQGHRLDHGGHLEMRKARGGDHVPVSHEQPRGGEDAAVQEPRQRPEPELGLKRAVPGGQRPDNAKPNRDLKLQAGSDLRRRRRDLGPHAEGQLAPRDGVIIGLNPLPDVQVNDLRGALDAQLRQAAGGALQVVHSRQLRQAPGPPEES
SLC35F3, sequence (Q8IY50 whole entry): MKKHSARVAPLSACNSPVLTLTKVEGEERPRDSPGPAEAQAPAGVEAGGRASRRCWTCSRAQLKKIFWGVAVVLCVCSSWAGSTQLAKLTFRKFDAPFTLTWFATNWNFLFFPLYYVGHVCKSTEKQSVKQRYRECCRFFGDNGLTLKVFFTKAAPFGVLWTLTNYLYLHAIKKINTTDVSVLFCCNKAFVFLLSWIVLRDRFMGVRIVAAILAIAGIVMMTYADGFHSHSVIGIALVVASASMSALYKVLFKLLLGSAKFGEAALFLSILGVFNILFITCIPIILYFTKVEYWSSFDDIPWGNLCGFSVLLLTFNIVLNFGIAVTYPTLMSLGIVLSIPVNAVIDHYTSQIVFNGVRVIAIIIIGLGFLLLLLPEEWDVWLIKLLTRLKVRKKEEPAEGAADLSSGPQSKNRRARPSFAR

Clc1cccc(Cl)c1N=C1NCCN1 [Clonidine]
Clint (±SEM) (SLC38A10 [1]): 2.64 (±3.0) μl × mg protein^-1 × min^-1 | Uptake data for SLC35G3, mean value (fold-increase over empty vector control) (SLC35G3 [2]): 1.54 | Uptake by SLC22A15 (in words) (SLC22A15): significantly increased the uptake | Vmax (±SEM) (SLC35F2; SLC35F2, HEK293, net uptake over empty vector cells): 304 (±57.7) pmol × mg protein^-1 × min^-1 | Clint (±SEM) (SLC35F2; human): 2.06 (±1.62) μl × mg protein^-1 × min^-1 | Km (SLC35F2; read-out: KM (±SEM), SLC35F2, HEK293, net uptake over empty vector cells): 147 µM | Clint (±SEM) (SLC35G3 [3]): 4.85 (±3.17) μl × mg protein^-1 × min^-1

N[C@@H](CCC(=O)O)C(=O)O [glutamic acid]
Uptake by SLC35E4 (in words) (SLC35E4): minor | Uptake by SLC38A10 compared with empty-vector-transfected cells (factor) (SLC38A10 [4]): 1.4

Cc1ncc(C[n+]2csc(CCO)c2C)c(N)n1 [Thiamine]
Uptake by SLC35F3 (in words) (SLC35F3): no enhanced thiamine uptake | Uptake data for SLC35G3, mean value (fold-increase over empty vector control) (SLC35G3 [2]): 0.90 | Uptake by SLC35F4 (in words) (SLC35F4): no enhanced thiamine transport

c1cnc2cc3c(cc2n1)[C@@H]1CNC[C@H]3C1 [Varenicline]
Clint (±SEM) (SLC35E2A [5]): 1.79 (±1.06) μl × mg protein^-1 × min^-1 | Uptake data for SLC35G3, mean value (fold-increase over empty vector control) (SLC35G3 [2]): 1.60 | Uptake by SLC35E2A (in words) (SLC35E2A [6]): relatively high activity | Uptake by SLC22A15 (in words) (SLC22A15): significantly increased the uptake
